In ChEMBL document CHEMBL1201862, “PubChem BioAssay data set” (2004):
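In this assay, cells in 96-well plates receive the compound at five concentrations for 48 hours. Endpoints are linearly interpolated between the surrounding concentrations. Abbreviation: GI50, concentration required for 50% inhibition of growth.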 Active and inactive are the calls of the source. No stated cut-off is given here; in the data, active = GI50 up to about 1.1 µM and inactive = higher.

Assays:
Assay in all cases: NCI-60 cell line screen, 48 h
786-0 = tested on: 786-0
A498 = tested on: A498
CCRF-CEM = tested on: CCRF-CEM
HCT-15 = tested on: HCT-15
HT-29 = tested on: HT-29
KM12 = tested on: KM12
LOX IMVI = tested on: LOX IMVI
M14 = tested on: M14
MDA-MB-231 = tested on: MDA-MB-231
MDA-N = tested on: MDA-N
Malme-3M = tested on: Malme-3M
NCI-H522 = tested on: NCI-H522
RPMI-8226 = tested on: RPMI-8226
SF-539 = tested on: SF-539
SK-MEL-28 = tested on: SK-MEL-28
SNB-75 = tested on: SNB-75
SW-620 = tested on: SW-620
T47D = tested on: T47D
U-251 = tested on: U-251
SR = tested on: SR

SMILES	GI50 (786-0)	GI50 (A498)	GI50 (CCRF-CEM)	GI50 (HCT-15) [µM]	GI50 (HT-29)	GI50 (KM12)	GI50 (LOX IMVI)	GI50 (M14)	GI50 (MDA-MB-231)	GI50 (MDA-N)	GI50 (Malme-3M)	GI50 (NCI-H522)	GI50 (RPMI-8226)	GI50 (SF-539)	GI50 (SK-MEL-28)	GI50 (SNB-75)	GI50 (SW-620)	GI50 (T47D)	GI50 (U-251)	GI50 (SR)
CCOC(=O)/C(C(=O)Nc1cccc(Cl)c1)=C(/N)N1CCOCC1	> 100 µM (inactive)	> 100 µM (inactive)	> 100 µM (inactive)	> 100	> 100 µM (inactive)	> 100 µM (inactive)	> 100 µM (inactive)	> 100 µM (inactive)	> 100 µM (inactive)	> 100 µM (inactive)	> 100 µM (inactive)	> 100 µM (inactive)	> 100 µM (inactive)	> 100 µM (inactive)	> 100 µM (inactive)	> 100 µM (inactive)	> 100 µM (inactive)	> 100 µM (inactive)	> 100 µM (inactive)	–
[O-][n+]1onc(-c2ccccc2)c1CN1CCOCC1	> 100 µM (inactive)	61.9 µM (inactive)	22.8 µM (inactive)	72.9	> 100 µM (inactive)	> 100 µM (inactive)	71.8 µM (inactive)	> 100 µM (inactive)	> 100 µM (inactive)	> 100 µM (inactive)	> 100 µM (inactive)	26.4 µM (inactive)	76.6 µM (inactive)	> 100 µM (inactive)	> 100 µM (inactive)	> 100 µM (inactive)	> 100 µM (inactive)	71.6 µM (inactive)	> 100 µM (inactive)	–
C(=C\c1cccs1)/c1cccc(/C=C/c2cccs2)n1	35.3 µM (inactive)	–	> 100 µM (inactive)	> 100	> 100 µM (inactive)	4.3 µM (inactive)	> 100 µM (inactive)	> 100 µM (inactive)	> 100 µM (inactive)	> 100 µM (inactive)	1.72 µM (inactive)	1.53 µM (inactive)	> 100 µM (inactive)	> 100 µM (inactive)	> 100 µM (inactive)	19.3 µM (inactive)	24.8 µM (inactive)	6.14 µM (inactive)	54.7 µM (inactive)	32.4 µM (inactive)
COC(=O)[C@]1(c2cc3ccccc3[nH]2)CC2CN(C(=O)OCc3ccccc3)C1CC2=O (stereo not given in full)	23.8 µM (inactive)	20 µM (inactive)	28.2 µM (inactive)	27.5	15.5 µM (inactive)	26.9 µM (inactive)	22.5 µM (inactive)	30.5 µM (inactive)	12.8 µM (inactive)	24.8 µM (inactive)	20.7 µM (inactive)	20.6 µM (inactive)	17.5 µM (inactive)	28.3 µM (inactive)	39.3 µM (inactive)	16.5 µM (inactive)	29.6 µM (inactive)	22.5 µM (inactive)	15.8 µM (inactive)	–
Cc1cc(NS(=O)(=O)c2ccc(NC(=O)c3cccc4c(NNc5ccc(S(=O)(=O)N=C(N)N)cc5)c5ccccc5nc34)cc2)no1	> 100 µM (inactive)	–	29 µM (inactive)	63.4	30.5 µM (inactive)	36 µM (inactive)	34.6 µM (inactive)	> 100 µM (inactive)	44.2 µM (inactive)	68.5 µM (inactive)	94.4 µM (inactive)	29 µM (inactive)	82 µM (inactive)	40.1 µM (inactive)	33.9 µM (inactive)	28.2 µM (inactive)	60 µM (inactive)	34.6 µM (inactive)	22.6 µM (inactive)	35.8 µM (inactive)
COc1cc2cc(C(=O)N3CC(COS(C)(=O)=O)c4c3cc([N+](=O)[O-])c3ccccc43)[nH]c2c(OC)c1OC (stereo not given)	0.752 µM (active)	10.7 µM (inactive)	0.778 µM (active)	> 31.6	6.15 µM (inactive)	30.1 µM (inactive)	33.2 µM (inactive)	19 µM (inactive)	60.4 µM (inactive)	19.5 µM (inactive)	–	2.99 µM (inactive)	2.92 µM (inactive)	4.05 µM (inactive)	> 31.6 µM (inactive)	> 24 µM (inactive)	1.79 µM (inactive)	> 31.6 µM (inactive)	> 31.6 µM (inactive)	–
C=C(C)CNC(=S)N(N)c1ccc2ccccc2c1	> 100 µM (inactive)	–	95.3 µM (inactive)	5.01	65.3 µM (inactive)	13.6 µM (inactive)	> 100 µM (inactive)	> 100 µM (inactive)	> 100 µM (inactive)	> 100 µM (inactive)	> 100 µM (inactive)	46.6 µM (inactive)	> 100 µM (inactive)	> 100 µM (inactive)	> 100 µM (inactive)	> 100 µM (inactive)	> 100 µM (inactive)	24.2 µM (inactive)	> 100 µM (inactive)	> 100 µM (inactive)
CN(C)CCNc1nc2ccccc2c2c1CCCC2	16.4 µM (inactive)	17.2 µM (inactive)	–	32	22.8 µM (inactive)	19.3 µM (inactive)	17.8 µM (inactive)	16.5 µM (inactive)	14.7 µM (inactive)	16.1 µM (inactive)	16.3 µM (inactive)	16.3 µM (inactive)	20.5 µM (inactive)	28.2 µM (inactive)	17.7 µM (inactive)	15.7 µM (inactive)	26.2 µM (inactive)	16.7 µM (inactive)	17.3 µM (inactive)	–
O=C1O/C(=C(/Br)c2ccc(Cl)c(Cl)c2)c2ccccc21	> 10 µM (inactive)	–	> 10 µM (inactive)	> 10	> 10 µM (inactive)	> 10 µM (inactive)	> 10 µM (inactive)	> 10 µM (inactive)	> 10 µM (inactive)	> 10 µM (inactive)	–	> 10 µM (inactive)	> 10 µM (inactive)	> 10 µM (inactive)	> 10 µM (inactive)	> 10 µM (inactive)	> 10 µM (inactive)	> 10 µM (inactive)	> 10 µM (inactive)	> 10 µM (inactive)
COC1OC(COC(=O)NCCCCC(=O)C(F)(F)F)C(O)C(O)C1O (stereo not given)	> 100 µM (inactive)	–	> 100 µM (inactive)	> 100	> 100 µM (inactive)	> 100 µM (inactive)	> 100 µM (inactive)	> 100 µM (inactive)	> 100 µM (inactive)	> 100 µM (inactive)	> 100 µM (inactive)	–	> 100 µM (inactive)	> 100 µM (inactive)	> 100 µM (inactive)	> 100 µM (inactive)	> 100 µM (inactive)	> 100 µM (inactive)	> 100 µM (inactive)	> 100 µM (inactive)
COc1cc(/C=C2\N=C(c3ccccc3)N(c3nc4cc(C)c(C)cc4s3)C2=O)ccc1O	43 µM (inactive)	–	20.5 µM (inactive)	45.6	31.1 µM (inactive)	17.8 µM (inactive)	30.5 µM (inactive)	47.4 µM (inactive)	66.1 µM (inactive)	15.2 µM (inactive)	–	–	20.8 µM (inactive)	29.4 µM (inactive)	71.3 µM (inactive)	24.9 µM (inactive)	35.5 µM (inactive)	44.1 µM (inactive)	30.8 µM (inactive)	19.9 µM (inactive)
CCN(CC)c1ccc2cc(-c3csc(C)n3)c(=O)oc2c1	39.2 µM (inactive)	–	> 100 µM (inactive)	> 100	5.75 µM (inactive)	13.5 µM (inactive)	67.3 µM (inactive)	> 100 µM (inactive)	71.8 µM (inactive)	0.719 µM (active)	–	–	> 100 µM (inactive)	77.3 µM (inactive)	> 100 µM (inactive)	0.0585 µM (active)	> 100 µM (inactive)	2.14 µM (inactive)	57.7 µM (inactive)	62.2 µM (inactive)
CC(=O)OCc1cncn1S(=O)(=O)c1ccc(C)cc1	> 100 µM (inactive)	–	30.4 µM (inactive)	20.3	33.7 µM (inactive)	31.7 µM (inactive)	30.8 µM (inactive)	42.2 µM (inactive)	> 100 µM (inactive)	9.46 µM (inactive)	> 100 µM (inactive)	71.9 µM (inactive)	35 µM (inactive)	86.9 µM (inactive)	> 100 µM (inactive)	> 100 µM (inactive)	36.4 µM (inactive)	79.4 µM (inactive)	> 87.7 µM (inactive)	11.4 µM (inactive)
[N-]=[N+]=NC1OC(=O)C(Cl)=C1N=P(c1ccccc1)(c1ccccc1)c1ccccc1 (stereo not given)	> 10 µM (inactive)	> 10 µM (inactive)	4.3 µM (inactive)	7.35	–	7.85 µM (inactive)	7.78 µM (inactive)	6.98 µM (inactive)	6.44 µM (inactive)	9.27 µM (inactive)	> 10 µM (inactive)	6.67 µM (inactive)	3.34 µM (inactive)	> 10 µM (inactive)	> 10 µM (inactive)	6.84 µM (inactive)	> 10 µM (inactive)	> 10 µM (inactive)	> 10 µM (inactive)	–
Cc1cn(C2OC(CO[Si](C)(C)C(C)(C)C)/C(=C\C#N)C2O[Si](C)(C)C(C)(C)C)c(=O)[nH]c1=O (stereo not given)	58.1 µM (inactive)	> 100 µM (inactive)	9.51 µM (inactive)	14.4	40.7 µM (inactive)	27.1 µM (inactive)	19.5 µM (inactive)	> 100 µM (inactive)	> 100 µM (inactive)	> 100 µM (inactive)	–	–	> 100 µM (inactive)	6.75 µM (inactive)	> 100 µM (inactive)	56.9 µM (inactive)	> 100 µM (inactive)	5.3 µM (inactive)	38.4 µM (inactive)	> 100 µM (inactive)
